Laboratory results reported in ChEMBL document CHEMBL3861963, “Hypocriols A-F, Heterodimeric Botryane Ethers from Hypocrea sp., an Insect-Associated Fungus” (J Nat Prod, 2016).
pIC50: −log10 of the molar value.

What was measured:
Type in all cases: functional, cell-based
[1] = Antiproliferative activity against human HeLa cells measured after 24 hrs by CCK8 assay
[2] = Antiproliferative activity against human HCT116 cells measured after 24 hrs by CCK8 assay; conditions: HCT-116, 24 h
[3] = Antiproliferative activity against human A549 cells measured after 24 hrs by CCK8 assay; conditions: A549, 24 h
[4] = Antiproliferative activity against human MCF7 cells measured after 24 hrs by CCK8 assay; conditions: MCF7, 24 h

Row | SMILES | pIC50 [1] | pIC50 [2] | pIC50 [3] | pIC50 [4]
1 | CC(=O)O[C@H]1C[C@@H](C)[C@@H]2[C@@H](O)[C@H](O[C@H]3OC[C@@]4(C)CC(C)(C)c5ccc(C)c3c54)[C@@]3(C)CC(C)(C)[C@H]1[C@]23O | 5.11 | 4.73 | 4.60 | 4.71
2 | CC(=O)O[C@H]1C[C@@H](C)[C@@H]2[C@@H](OCc3c(C)ccc4c3[C@@](C)(CO)CC4(C)C)OC[C@@]3(C)CC(C)(C)[C@H]1[C@]23O | 5.34 | 5.57 | 4.82 | 4.63
3 | CC(=O)O[C@H]1C[C@@H](C)[C@@H]2[C@@H](OC3OC[C@@]4(C)CC(C)(C)c5ccc(C)c3c54)[C@H](O)[C@@]3(C)CC(C)(C)[C@H]1[C@]23O (some centres undefined) | 5.51 |  |  | 
4 | CO[C@H]1O[C@@H](O[C@H]2[C@H](O)[C@H]3[C@H](C)C[C@H](OC(C)=O)[C@H]4C(C)(C)C[C@@]2(C)[C@@]34O)[C@@]2(C)CC(C)(C)c3ccc(C)c1c32 | 5.42 | 4.73 | 4.33 | 4.47
5 | CC(=O)O[C@H]1C[C@@H](C)[C@@H]2[C@@H](OC[C@@]3(C)CC(C)(C)c4ccc(C)c(CO)c43)OC[C@@]3(C)CC(C)(C)[C@H]1[C@]23O | 4.36 | 4.64 |  | 4.32
6 | CC(=O)O[C@H]1C[C@@H](C)[C@@H]2[C@@H](O)[C@H](O[C@@H]3OC[C@@]4(C)CC(C)(C)c5ccc(C)c3c54)[C@@]3(C)CC(C)(C)[C@H]1[C@]23O | 4.93 | 4.76 |  | 4.32
